Test results reported in ChEMBL document CHEMBL4680188 (Eur J Med Chem, 2020).
pEC50, pKi: −log10 of the molar value. Activity calls are given as the source filed them. No cut-off for these calls is given here.

Experiments:
[1] = target: T1, Melatonin receptor type 1B (Homo sapiens, UniProt P49286); experiment: Displacement of 2-[125l]-lodomelatonin from human MT2 expressed in CHO cells incubated for 120 mins by radioligand binding assay; type: cell-based
T1 sequence (P49286 whole entry): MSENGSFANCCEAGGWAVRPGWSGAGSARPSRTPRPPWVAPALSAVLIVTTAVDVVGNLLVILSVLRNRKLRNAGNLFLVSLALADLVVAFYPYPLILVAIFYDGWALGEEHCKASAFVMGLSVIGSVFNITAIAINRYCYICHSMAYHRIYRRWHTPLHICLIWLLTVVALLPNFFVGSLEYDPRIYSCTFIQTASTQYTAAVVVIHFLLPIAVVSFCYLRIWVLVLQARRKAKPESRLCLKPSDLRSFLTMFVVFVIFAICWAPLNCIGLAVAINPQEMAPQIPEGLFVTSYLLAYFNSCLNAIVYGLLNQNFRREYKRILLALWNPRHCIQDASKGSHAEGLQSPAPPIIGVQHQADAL

[2] = target: T2, 5-hydroxytryptamine receptor 2C (Homo sapiens) (UniProt P28335); experiment: Binding affinity to human 5HT2C expressed in CHO cells; type: cell-based
T2 sequence (whole entry): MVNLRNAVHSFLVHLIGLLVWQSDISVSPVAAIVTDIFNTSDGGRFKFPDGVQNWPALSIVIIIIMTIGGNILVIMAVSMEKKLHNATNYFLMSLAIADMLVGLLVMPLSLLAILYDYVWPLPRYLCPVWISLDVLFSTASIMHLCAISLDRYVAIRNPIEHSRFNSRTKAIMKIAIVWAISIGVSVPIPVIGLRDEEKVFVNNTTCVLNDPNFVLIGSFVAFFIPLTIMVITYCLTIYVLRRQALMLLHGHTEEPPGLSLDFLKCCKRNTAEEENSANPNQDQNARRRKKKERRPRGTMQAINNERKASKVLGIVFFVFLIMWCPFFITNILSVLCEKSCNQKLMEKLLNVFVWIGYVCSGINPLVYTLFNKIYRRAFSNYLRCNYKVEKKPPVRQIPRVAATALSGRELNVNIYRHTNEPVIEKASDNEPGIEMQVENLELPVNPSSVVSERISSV

[3] = target: T3, Melatonin receptor type 1A (Homo sapiens, UniProt P48039); experiment: Displacement of 2-[125l]-lodomelatonin from human MT1 expressed in CHO cells incubated for 120 mins by radioligand binding assay; type: cell-based
[4] = Oral bioavailability in human; type: ADME, organism-based; conditions: in vivo
[5] = Oral bioavailability in rat; type: ADME, organism-based; conditions: in vivo
[6] = target: T1, Melatonin receptor type 1B; experiment: Agonist activity at human MT2 expressed in CHO cell membrane incubated for 1 hr by [35S]GTPgammaS binding assay; type: functional, cell membranes
[7] = target: T3, Melatonin receptor type 1A; experiment: Agonist activity at human MT1 expressed in CHO cell membrane incubated for 1 hr by [35S]GTPgammaS binding assay; type: functional, cell membranes
[8] = Permeability in human Caco-2 cells; type: ADME, cell-based

T3 sequence (P48039 whole entry): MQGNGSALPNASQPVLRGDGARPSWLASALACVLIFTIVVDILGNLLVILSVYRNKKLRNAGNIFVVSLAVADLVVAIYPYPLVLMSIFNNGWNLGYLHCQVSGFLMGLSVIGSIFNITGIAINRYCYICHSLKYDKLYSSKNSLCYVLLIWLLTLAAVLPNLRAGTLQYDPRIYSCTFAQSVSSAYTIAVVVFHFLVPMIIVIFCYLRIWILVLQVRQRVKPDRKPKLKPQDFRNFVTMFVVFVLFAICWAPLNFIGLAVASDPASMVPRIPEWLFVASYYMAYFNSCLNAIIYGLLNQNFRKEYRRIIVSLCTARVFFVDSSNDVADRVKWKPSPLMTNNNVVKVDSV

| Compound | pKi [1] | Activity [2] | pKi [3] | bioavailability [4] | bioavailability [5] | pEC50 [6] | pEC50 [7] | permeability [8] |
| --- | --- | --- | --- | --- | --- | --- | --- | --- |
| CCNC(=O)N1CCN(c2ncnc3ccc(OC)cc23)CC1 | 5.55 | inactive | < 5.00 |  |  |  |  |  |
| CCCC(=O)NCCc1nncc2ccc(OC)cc12 | 6.97 | inactive | 5.94 | 36% | 33% | 7.05 | < 5.00 | 100% |
| COc1ccc2cccc(CCNC(C)=O)c2c1 [AGOMELATINE] |  |  |  | 11% | 13% |  |  | 100% |
| COc1ccc2ncnc(NCCNC(C)=O)c2c1 | < 5.00 | inactive | < 5.00 |  |  |  |  |  |
| CCCC(=O)NCCc1ncnc2ccc(OC)cc12 | 7.39 | inactive | 6.49 | 36% | 69% | 6.66 | 6.19 |  |
| CCC(=O)NCCc1nncc2ccc(OC)cc12 | 6.38 | inactive | 5.83 | 46% | 54% | 6.49 | < 5.00 | 100% |
| COc1ccc2ncnc(CCNC(C)=O)c2c1 | 6.94 | inactive | 6.64 | 97% | 92% | 6.08 | 5.59 | 100% |
| COc1ccc2ncnc(N3CCN(C(=O)C4CC4)CC3)c2c1 | 5.48 | inactive | < 5.00 |  |  |  |  |  |
| COc1ccc2ncnc(CCNC(=O)C3CC3)c2c1 | 6.40 | inactive | 6.26 |  |  |  |  |  |
| COc1ccc2cnnc(CCNC(=O)C3CC3)c2c1 | 5.86 | inactive | 5.52 |  |  | 5.90 | < 5.00 |  |
| COc1ccc2cnnc(CCNC(C)=O)c2c1 | 6.10 | inactive | 5.68 |  |  | 6.37 | < 5.00 | 2% |
| COc1cccc(-c2nc(CCNC(C)=O)c3cc(OC)ccc3n2)c1 | 7.34 | inactive | 6.30 |  |  | 6.27 | 6.49 |  |
| COc1ccc2nc(-c3ccccc3)nc(CCNC(C)=O)c2c1 | 7.81 | inactive | 6.05 | 7% | 2% | 6.63 | < 5.00 | 100% |
| CCC(=O)NCCc1ncnc2ccc(OC)cc12 | 7.39 | inactive | 6.68 |  |  | 6.62 | 6.36 |  |
